Assay results published in patent US10913736B2 (UNIVERSITY OF WASHINGTON, priority 2014, dated 2021).
In brackets after ≈: the same amount, converted by molar mass. Several values for one entry are separate records, joined by “and”; a condition that tells them apart may be missing. Equal values may be shown once. Read-outs that look alike come from different tables or passages of the source.

Columns and labels:
[1] = system: P. fal (3D37); assay: P. fal (3D37) growth inhibition EC50; format: cell-based; conditions: read-out: G) P. fal (3D37) EC50
[2] = target: MetRS (S. aureus) (Staphylococcus aureus, UniProt Q5HII6); assay: biochemical; conditions: ATP depletion, Kinase-Glo; read-out: H) MetRS (S. aureus) ATP depletion assay using Kinase-Glo with modified cpd dilution method, IC50
[3] = system: L. amaz; assay: L. amaz growth inhibition EC50; format: cell-based; conditions: read-out: F) L. amaz EC50
[4] = target: MetRS (Giardia) (Giardia intestinalis, UniProt A8BY75); assay: biochemical; conditions: read-out: D) MetRS (Giardia) aminoacylation assay with modified cpd dilution method IC50
[5] = system: E. faecium (ATCC 51559); assay: E. faecium (ATCC 51559) MIC/EC50; format: cell-based
[6] = target: MetRS (T. brucei) (Trypanosoma brucei brucei, UniProt Q38C91); assay: MetRS (T. brucei) ATP depletion assay using Kinase-Glo; format: biochemical
[7] = system: T. brucei; assay: Growth inhibition assay of T. brucei cell cultures (Alamar Blue, 48 h); format: cell-based
[8] = system: T. cruzi; assay: T. cruzi growth inhibition EC50; format: cell-based
[9] = system: Giardia intestinalis (ATCC 50580); assay: Giardia intestinalis (ATCC 50580) growth inhibition EC50; format: cell-based
[10] = system: E. faecalis (ATCC 29212); assay: E. faecalis (ATCC 29212) MIC/EC50; format: cell-based
[11] = system: S. aureus (ATCC 29213); assay: S. aureus (ATCC 29213) MIC/EC50; format: cell-based; conditions: Staphylococcus aureus, ATCC29213; S. aureus ATCC 29213; read-out: I) S. aureus (ATCC 29213) MIC/EC50, MIC
[12] = system: S. aureus MRSA (ATCC 43300); assay: S. aureus MRSA (ATCC 43300) MIC/EC50; format: cell-based; conditions: Staphylococcus aureus; S. aureus MRSA ATCC 43300; read-out: J) S. aureus MRSA (ATCC 43300) MIC/EC50, MIC
[13] = Trypanosoma brucei; read-out: B) T. brucei EC50
[14] = Trypanosoma cruzi; read-out: C) T. cruzi EC50
[15] = Giardia duodenalis, ATCC50580; read-out: E) Giardia intestinalis (ATCC 50580) EC50
[16] = read-out: E) Giardia intestinalis (ATCC 50580) EC50

Chain of MetRS (S. aureus) (Q5HII6 whole entry): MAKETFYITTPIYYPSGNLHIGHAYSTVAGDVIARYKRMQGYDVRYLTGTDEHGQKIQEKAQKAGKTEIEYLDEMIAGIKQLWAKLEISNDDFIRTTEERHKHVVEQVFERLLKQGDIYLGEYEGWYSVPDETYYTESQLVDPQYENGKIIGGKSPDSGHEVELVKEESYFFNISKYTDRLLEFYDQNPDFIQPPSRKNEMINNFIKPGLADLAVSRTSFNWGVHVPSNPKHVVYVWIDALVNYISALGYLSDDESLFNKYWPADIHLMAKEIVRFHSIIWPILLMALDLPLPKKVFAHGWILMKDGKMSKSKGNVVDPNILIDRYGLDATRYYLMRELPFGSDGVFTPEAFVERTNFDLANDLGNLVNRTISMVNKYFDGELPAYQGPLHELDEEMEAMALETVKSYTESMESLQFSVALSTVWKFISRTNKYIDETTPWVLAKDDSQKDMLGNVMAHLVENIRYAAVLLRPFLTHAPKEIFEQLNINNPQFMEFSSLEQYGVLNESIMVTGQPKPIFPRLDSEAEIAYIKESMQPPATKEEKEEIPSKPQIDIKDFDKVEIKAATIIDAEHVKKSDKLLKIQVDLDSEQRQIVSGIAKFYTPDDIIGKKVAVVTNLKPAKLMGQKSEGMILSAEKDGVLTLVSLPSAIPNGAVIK
Chain of MetRS (T. brucei) (Q38C91 entry or part of it): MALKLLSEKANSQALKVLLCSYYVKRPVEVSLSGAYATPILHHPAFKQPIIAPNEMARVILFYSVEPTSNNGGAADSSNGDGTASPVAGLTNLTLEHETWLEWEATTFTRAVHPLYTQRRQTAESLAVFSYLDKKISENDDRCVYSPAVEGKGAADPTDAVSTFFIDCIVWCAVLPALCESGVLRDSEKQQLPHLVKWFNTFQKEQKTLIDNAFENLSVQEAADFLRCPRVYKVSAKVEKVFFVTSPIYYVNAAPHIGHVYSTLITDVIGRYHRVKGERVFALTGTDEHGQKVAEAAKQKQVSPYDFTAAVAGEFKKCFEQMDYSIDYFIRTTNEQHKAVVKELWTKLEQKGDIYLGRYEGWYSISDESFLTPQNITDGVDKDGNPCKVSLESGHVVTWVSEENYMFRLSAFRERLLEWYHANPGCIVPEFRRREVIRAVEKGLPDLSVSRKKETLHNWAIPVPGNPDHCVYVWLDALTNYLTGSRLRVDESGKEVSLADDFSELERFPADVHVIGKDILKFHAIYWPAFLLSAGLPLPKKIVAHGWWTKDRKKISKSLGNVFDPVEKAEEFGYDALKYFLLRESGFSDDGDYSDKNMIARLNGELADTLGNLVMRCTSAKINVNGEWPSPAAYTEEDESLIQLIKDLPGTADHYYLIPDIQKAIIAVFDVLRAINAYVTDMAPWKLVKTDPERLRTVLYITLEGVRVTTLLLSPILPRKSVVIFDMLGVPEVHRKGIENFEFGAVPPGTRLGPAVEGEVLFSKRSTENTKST
Chain of MetRS (Giardia) (A8BY75 entry or part of it): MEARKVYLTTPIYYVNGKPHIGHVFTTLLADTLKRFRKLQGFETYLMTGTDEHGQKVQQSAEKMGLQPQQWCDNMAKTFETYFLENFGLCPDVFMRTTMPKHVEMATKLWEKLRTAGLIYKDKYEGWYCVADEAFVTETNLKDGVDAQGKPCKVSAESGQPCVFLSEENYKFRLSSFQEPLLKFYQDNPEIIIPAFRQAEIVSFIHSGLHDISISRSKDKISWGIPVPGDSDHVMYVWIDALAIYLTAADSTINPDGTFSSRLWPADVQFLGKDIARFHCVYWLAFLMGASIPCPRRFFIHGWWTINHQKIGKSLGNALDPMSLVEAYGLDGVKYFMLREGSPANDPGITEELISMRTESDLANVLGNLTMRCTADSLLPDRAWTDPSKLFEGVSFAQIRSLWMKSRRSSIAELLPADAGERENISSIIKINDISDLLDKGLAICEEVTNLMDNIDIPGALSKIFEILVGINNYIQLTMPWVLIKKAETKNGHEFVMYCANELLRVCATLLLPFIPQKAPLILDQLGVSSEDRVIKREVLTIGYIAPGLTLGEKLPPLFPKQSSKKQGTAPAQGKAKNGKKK

| SMILES | EC50 [1] | IC50 [2] | EC50 [3] | IC50 [4] | L) E. faecium (ATCC 51559) MIC/EC50, MIC [5] | IC50 [6] | EC50 [7, 13] | EC50 ([7]; read-out: B) T. brucei EC50) | EC50 [8, 14] | EC50 [9, 15] | EC50 [9, 16] | K) E. faecalis (ATCC 29212) MIC/EC50, MIC [10] | MIC [11] | EC50 ([8]; read-out: C) T. cruzi EC50) | MIC [12] | K) E. faecalis (ATCC 29212) MIC/EC50, MIC (ug/ml) [10] |
| --- | --- | --- | --- | --- | --- | --- | --- | --- | --- | --- | --- | --- | --- | --- | --- | --- |
| Clc1cc(Cl)cc(CNCCCNc2nc3ncccc3[nH]2)c1 [Compound 1575, N1-(3,5-dichlorobenzyl)-N3-(1H-imidazo[4,5-b]pyridin-2-yl)propane-1,3-diamine] | 7010 nM | 35 nM | > 10000 nM | 36 nM | 0.625 µg/mL | 9 nM | 9.36 nM | 7.64 nM | 193 nM |  |  |  |  |  |  |  |
| O=C(/C=C/Oc1ccc(Cl)cc1Cl)NCc1nc2ccccc2[nH]1 [Compound 1729, (2E)-N-(1H-1,3-benzodiazol-2-ylmethyl)-3-(2,4-dichlorophenoxy)prop-2-enamide] |  | 27 nM | > 1000 nM |  | >10 µg/mL | 17 nM | 119 nM |  | > 5000 nM |  |  |  |  |  |  |  |
| Clc1cc(Cl)cc(Cn2cc(Cc3nc4ccccc4[nH]3)nn2)c1 [Compound 1753, 2-({1-[(3,5-dichlorophenyl)methyl]-1H-1,2,3-triazol-4-yl}methyl)-1H-1,3-benzodiazole] |  | 1100 nM |  |  | >10 µg/mL | 73 nM | 2330 nM |  | > 5000 nM |  |  |  |  |  |  |  |
| Fc1ccc2nc(NCCCNCc3cc(Cl)cc(Cl)c3)[nH]c2n1 [Compound 1614, [(3,5-dichlorophenyl)methyl][3-({5-fluoro-3H-imidazo[4,5-b]pyridin-2-yl}amino)propyl]amine] | 7710 nM | 37 nM | > 1000 nM | 9 nM | 1.25 µg/mL | 16 nM |  |  | 39.5 nM | 3420 nM | 1980 nM | 0.625 µg/mL | 1.25 µg/mL (≈ 3.39 µM) | 35.7 nM |  |  |
| C[C@@H](CNCc1cc(Cl)cc(Cl)c1)CNc1nc2cccnc2[nH]1 [Compound 1655, (S)-N1-(3,5-dichlorobenzyl)-N3-(1H-imidazo[4,5-b]pyridin-2-yl)-2-methylpropane-1,3-diamine] |  | 171 nM | 6740 nM |  |  | 43 nM | 11.3 nM | 7.97 nM | 709 nM |  |  |  | 10 µg/mL (≈ 27.5 µM) |  | 10 µg/mL (≈ 27.5 µM) |  |
| Fc1ccc2nc(NCCCN[C@@H]3CCNc4c(Cl)cc(Cl)cc43)[nH]c2n1 [Compound 1717, (4R)-6,8-dichloro-N-[3-({5-fluoro-3H-imidazo[4,5-b]pyridin-2-yl}amino)propyl]-1,2,3,4-tetrahydroquinolin-4-amine] |  | 28 nM | 2850 nM | 3 nM | >0.04 µg/mL | 28 nM |  |  | > 4.57 nM | 590 nM | 316 nM | > 0.04 µg/mL and 0.079 µg/mL | 0.157 µg/mL (≈ 0.384 µM) | 3.72 nM | 0.157 µg/mL (≈ 0.384 µM) |  |
| C[C@@H](CNCc1cc(Cl)cc(Cl)c1)CNc1nc2nc(F)ccc2[nH]1 [Compound 1673, [(3,5-dichlorophenyl)methyl][(2S)-3-({5-fluoro-3H-imidazo[4,5-b]pyridin-2-yl}amino)-2-methylpropyl]amine] |  | 113 nM | 7860 nM and 5710 nM and 8280 nM |  |  | 11 nM |  |  | 1540 nM |  |  |  | 5 µg/mL (≈ 13.1 µM) |  | 5 µg/mL (≈ 13.1 µM) |  |
| O=C(CCOc1ccc(Cl)cc1Cl)NCc1nc2ccccc2[nH]1 [Compound 1683, N-(1H-1,3-benzodiazol-2-ylmethyl)-3-(2,4-dichlorophenoxy)propanamide] |  |  | > 1000 nM | > 1000 nM |  | 74 nM | 8830 nM |  | > 10000 nM | > 2000 nM |  |  |  |  |  |  |
| Fc1ccc2nc(NCCCN[C@@H]3CCOc4c(Cl)cc(Cl)cc43)[nH]c2n1 [Compound 1709, (4R)-6,8-dichloro-N-[3-({5-fluoro-3H-imidazo[4,5-b]pyridin-2-yl}amino)propyl]-3,4-dihydro-2H-1-benzopyran-4-amine] |  | 19 nM | 1300 nM and 1130 nM | 2 nM | >0.04 µg/mL | 8 nM |  |  | > 4.57 nM | 664 nM | 492 nM |  |  | 5.05 nM |  |  |
| Fc1ccc2nc(NCCCN[C@H]3CCOc4c(Cl)cc(Cl)cc43)[nH]c2n1 [Compound 1711, (4S)-6,8-dichloro-N-[3-({5-fluoro-3H-imidazo[4,5-b]pyridin-2-yl}amino)propyl]-3,4-dihydro-2H-1-benzopyran-4-amine] |  | 368 nM |  |  | >10 µg/mL | 752 nM | 2820 nM |  |  |  |  |  |  |  |  | >10, >10 ug/ml |
| O=C(/C=C/Oc1ccc(Cl)cc1Cl)NCc1nc2ccc(F)nc2[nH]1 [Compound 1768, 3-(2,4-Dichloro-phenoxy)-N-(5-fluoro-3H-imidazo[4,5-b]pyridin-2-ylmethyl)-acrylamide] |  | 30 nM | > 1000 nM |  |  | 18 nM | 70.2 nM |  | 1690 nM |  |  |  | > 10 µg/mL |  | > 10 µg/mL |  |
| O=c1c(NCc2nc3ccccc3[nH]2)c(NCc2ccc(Cl)cc2Cl)c1=O [Compound 1769, 3-[(H-Benzoimidazol-2-ylmethyl)-amino]-4-(2,4-dichloro-benzylamino)-cyclobut-3-ene-1,2-dione] |  | 95 nM |  |  |  | 11 nM | 1070 nM |  | > 5000 nM |  |  |  | > 10 µg/mL |  | > 10 µg/mL |  |
